This is an account of results in PubChem BioAssay (NCI).

Test systems include OVCAR-5 ovarian; CAKI-1 renal; NCI-H522 lung; MDA-N; COLO 205 colon; BT-549 breast; HOP-92 NSCLC; OVCAR-3 ovarian; SK-MEL-2 melanoma; SK-OV-3 ovarian.
What all share (test): DTP human tumour cell line panel, 48 h

Molecules are shown by their SMILES.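 All cell lines were grown in 96-well plates and treated with compound for 48 hours. The concentration for full growth arrest is given as TGI.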 *1 amine or outer side, *2 acyl side, *3 side chain or, on linkers, in order; H or OH if unused. Where a SMILES comes first, the peptide text is derived from it. Bridges are numbered along the chain shown (N, C = ends). Roman numbers before positions name the chains, in order. [ ]: non-standard residue; d: D form. Actinocin(9to1) = Cc1c2oc3c(C)ccc(C(=O)[*:1])c3nc-2c(C(=O)[*:2])c(N)c1=O; NMeH = CN[CH](Cc1c[nH]cn1)C(=O)O; Sar = CNCC(=O)O

Usually TGI stands for the concentration at which net growth stops. Lower therefore signals more potent growth arrest. Consider `Cn1cccc1-c1ccc(-c2ccc(CO)[se]2)[se]1`, for which the concentration for total growth inhibition (TGI) was over 100 µM in the assay on OVCAR-5 ovarian; 44.5 µM in the assay on CAKI-1 renal; 50.1 µM in the assay with NCI-H522 lung; over 100 µM in the assay with MDA-N; over 86.4 µM in the assay on COLO 205 colon; over 78.5 µM in the assay with BT-549 breast. Also, the total growth inhibition concentration (TGI) with HOP-92 NSCLC was over 100 µM; in the assay with OVCAR-3 ovarian it was over 100 µM; in the assay on SK-MEL-2 melanoma it was over 100 µM; with SK-OV-3 ovarian it was over 78.3 µM.

Consider `O=C(COc1ccc(OCC(=O)N2C(=O)CC(=O)N(c3ccc(Cl)cc3)C2=S)cc1)N1C(=O)CC(=O)N(c2ccc(Cl)cc2)C1=S`, for which the TGI in the assay on OVCAR-5 ovarian is over 100 µM; with NCI-H522 lung it was 53.8 µM; with MDA-N, 97.2 µM; in the assay with COLO 205 colon it was 38.5 µM; in the assay with BT-549 breast, 87.8 µM; with HOP-92 NSCLC it was 70.4 µM. Also, the TGI in the assay on SK-MEL-2 melanoma and in the assay on SK-OV-3 ovarian was over 100 µM throughout.

`COC(=O)[C@H](Cc1c[nH]c2ccccc12)NP(=O)(OCCC#N)OCC1OC(n2cc(C)c(=O)[nH]c2=O)CC1N=[N+]=[N-]` (stereo partly drawn): the TGI in the assay on OVCAR-5 ovarian, with CAKI-1 renal, in the assay on NCI-H522 lung, with MDA-N, in the assay with COLO 205 colon and in the assay with BT-549 breast was over 100 µM in each case. Moreover, the concentration for total growth inhibition (TGI) in the assay on HOP-92 NSCLC, with OVCAR-3 ovarian, in the assay with SK-MEL-2 melanoma and with SK-OV-3 ovarian was over 100 µM each time.

Turning to `CC(=O)O[C@H]1CC[C@@]2(C)C(=CC[C@@H]3[C@@H]2CC[C@]2(C)C(=N/O)/C(=C\c4ccccc4)C[C@@H]32)C1`, the concentration for total growth inhibition (TGI) in the assay on OVCAR-5 ovarian is 70.2 µM; with CAKI-1 renal, over 100 µM; in the assay on NCI-H522 lung, 21.2 µM; in the assay on MDA-N, 99.4 µM; with COLO 205 colon, 32 µM; in the assay with BT-549 breast it was over 100 µM. Besides, the total growth inhibition concentration (TGI) in the assay with HOP-92 NSCLC was 88.5 µM; in the assay with OVCAR-3 ovarian, 54.7 µM; in the assay with SK-MEL-2 melanoma, 39.2 µM; with SK-OV-3 ovarian, over 100 µM.

`C#C[C@]1(O)CC[C@H]2[C@@H]3CCC4=C/C(=N/NC(=O)c5cccc6c(=O)c7ccccc7[nH]c56)CCC4[C@H]3CC[C@@]21C` (stereo partly drawn): the TGI in the assay with OVCAR-5 ovarian was over 100 µM; with CAKI-1 renal, over 100 µM; in the assay on NCI-H522 lung it was 86 µM; in the assay with MDA-N, over 100 µM; in the assay with COLO 205 colon, over 100 µM; with BT-549 breast, 63.3 µM. In addition, the total growth inhibition concentration (TGI) in the assay on HOP-92 NSCLC, with OVCAR-3 ovarian, with SK-MEL-2 melanoma and in the assay with SK-OV-3 ovarian was over 100 µM throughout.

With `Cc1cc(S(=O)(=O)Nc2nc3ncccc3[nH]2)c(S)cc1Cl`, the concentration for total growth inhibition (TGI) in the assay with OVCAR-5 ovarian, with CAKI-1 renal, with NCI-H522 lung, in the assay on MDA-N, in the assay with COLO 205 colon and in the assay with BT-549 breast was over 100 µM throughout. Besides, the concentration for total growth inhibition (TGI) in the assay on HOP-92 NSCLC, with OVCAR-3 ovarian and in the assay with SK-OV-3 ovarian was over 100 µM throughout.

As for `CSC(SC)=C(C#N)C(=O)Nc1cccc(Cl)c1`, the TGI in the assay with OVCAR-5 ovarian is over 100 µM; in the assay on CAKI-1 renal it was over 100 µM; in the assay on NCI-H522 lung, 43.8 µM; in the assay on MDA-N, over 100 µM; in the assay on COLO 205 colon, over 100 µM; with BT-549 breast it was over 100 µM. The TGI with HOP-92 NSCLC was 55.6 µM; in the assay with SK-MEL-2 melanoma, over 100 µM; in the assay on SK-OV-3 ovarian, over 100 µM.

Consider `Cc1c2oc3c(C)ccc(C(=O)NC4C(=O)NC(C(C)C)C(=O)N5CCCC5C(=O)N(C)CC(=O)N(C)C(Cc5cnc[nH]5)C(=O)OC4C)c3nc-2c(C(=O)NC2C(=O)NC(C(C)C)C(=O)N3CCCC3C(=O)N(C)CC(=O)N(C)C(Cc3cnc[nH]3)C(=O)OC2C)c(N)c1=O` (stereo not drawn) (I: TVP[Sar][NMeH] / II: TVP[Sar][NMeH]; ester I:1-I:C, II:1-II:C; linker I:N-II:N via Actinocin(9to1); configuration not given here), for which the TGI is over 100 µM with OVCAR-5 ovarian; over 100 µM with CAKI-1 renal; over 100 µM in the assay on NCI-H522 lung; 81.4 µM in the assay with MDA-N; over 100 µM in the assay with COLO 205 colon; over 100 µM with BT-549 breast. The concentration for total growth inhibition (TGI) in the assay on HOP-92 NSCLC, with OVCAR-3 ovarian, with SK-MEL-2 melanoma and with SK-OV-3 ovarian was over 100 µM each time.

Turning to `COC(=O)[C@@H]1CS(=O)(=O)C(C(C)C)N1C(C)=O` (stereo partly drawn), the TGI in the assay on OVCAR-5 ovarian, in the assay with CAKI-1 renal, with NCI-H522 lung, with MDA-N, with COLO 205 colon and in the assay on BT-549 breast was over 100 µM in each case. Moreover, the TGI with HOP-92 NSCLC, in the assay on OVCAR-3 ovarian, with SK-MEL-2 melanoma and in the assay on SK-OV-3 ovarian was over 100 µM in each case.

Take `Nc1cc2c(c3ccccc13)C(CCl)CN2C(=O)c1cc2cc(NC(=O)Nc3ccc4[nH]c(C(=O)N5CC(CCl)c6c5cc(N)c5ccccc65)cc4c3)ccc2[nH]1` (stereo not drawn): the TGI was found to be 4.22 µM in the assay on OVCAR-5 ovarian; 0.444 µM with CAKI-1 renal; 1.42 µM in the assay on NCI-H522 lung; 2.49 µM in the assay on MDA-N; 2.07 µM with COLO 205 colon; 4.53 µM in the assay on BT-549 breast. Besides, the TGI with HOP-92 NSCLC was over 100 µM; in the assay on OVCAR-3 ovarian, 2.41 µM; in the assay with SK-MEL-2 melanoma, 2.17 µM; with SK-OV-3 ovarian, over 24.3 µM.

Take `COc1ccc(C2C3=C(N=C4SC(C(C)=O)=C(C)N42)c2ccccc2CC3)cc1` (stereo not drawn): the TGI in the assay with OVCAR-5 ovarian, with MDA-N, in the assay on COLO 205 colon, in the assay with BT-549 breast, in the assay with HOP-92 NSCLC and in the assay on OVCAR-3 ovarian was over 100 µM in each case. Moreover, the TGI with SK-MEL-2 melanoma and in the assay with SK-OV-3 ovarian was over 100 µM in each case.

Consider `Cc1ccc(S(=O)(=O)N2C[C@@H]3CC[C@]4(CO[Si](C)(C)C(C)(C)C)N[C@@H](c5ccccc5)[C@H]2[C@H]34)cc1`, for which the TGI in the assay on OVCAR-5 ovarian is over 100 µM; in the assay on CAKI-1 renal it was over 100 µM; with NCI-H522 lung, over 100 µM; with MDA-N, over 100 µM; in the assay on COLO 205 colon, 58.8 µM; in the assay with BT-549 breast, 87.8 µM. For the same compound, the total growth inhibition concentration (TGI) is 28.7 µM in the assay on HOP-92 NSCLC, over 100 µM in the assay with OVCAR-3 ovarian, over 100 µM in the assay on SK-MEL-2 melanoma and over 100 µM with SK-OV-3 ovarian.

For the compound `CC(C)(C)OC(=O)NC12C3C4C1C1C2C3C41NC(=O)OC(C)(C)C` (stereo not drawn), the total growth inhibition concentration (TGI) in the assay on OVCAR-5 ovarian, in the assay on CAKI-1 renal, with NCI-H522 lung, with MDA-N, in the assay on COLO 205 colon and with BT-549 breast was over 100 µM each time. Further, the TGI in the assay with HOP-92 NSCLC, in the assay on OVCAR-3 ovarian and with SK-MEL-2 melanoma was over 100 µM each time.
